Activity calls are given as the source filed them. No cut-off for these calls is given here. Where a SMILES comes first, the peptide text is derived from it. Bridges are numbered along the chain shown (N, C = ends). [ ]: non-standard residue; d: D form. His(π-(CH2)8Ph) = N[C@@H](Cc1cncn1CCCCCCCCc1ccccc1)C(=O)O; pT = C[C@@H](OP(=O)(O)O)[C@H](N)C(=O)O; Ahx = NCCCCCC(=O)O
What was measured:
[1] = system: A549; assay: Cytotoxicity against human A549 cells incubated for 24 hrs by MTT assay; type: functional, cell-based; settings: A549, 24 h
[2] = system: NCI-H1975; assay: Cytotoxicity against human NCI-H1975 cells incubated for 24 hrs by MTT assay; type: functional, cell-based; settings: NCI-H1975, 24 h
[3] = target: E3 ubiquitin-protein ligase UBR2 (Homo sapiens) (UniProt Q8IWV8); assay: Binding affinity to UBR2 (unknown origin) expressed in HEK293T cells incubated for 3 hrs by pull-down assay; type: cell-based
E3 ubiquitin-protein ligase UBR2 (Homo sapiens), sequence (Q8IWV8 whole entry): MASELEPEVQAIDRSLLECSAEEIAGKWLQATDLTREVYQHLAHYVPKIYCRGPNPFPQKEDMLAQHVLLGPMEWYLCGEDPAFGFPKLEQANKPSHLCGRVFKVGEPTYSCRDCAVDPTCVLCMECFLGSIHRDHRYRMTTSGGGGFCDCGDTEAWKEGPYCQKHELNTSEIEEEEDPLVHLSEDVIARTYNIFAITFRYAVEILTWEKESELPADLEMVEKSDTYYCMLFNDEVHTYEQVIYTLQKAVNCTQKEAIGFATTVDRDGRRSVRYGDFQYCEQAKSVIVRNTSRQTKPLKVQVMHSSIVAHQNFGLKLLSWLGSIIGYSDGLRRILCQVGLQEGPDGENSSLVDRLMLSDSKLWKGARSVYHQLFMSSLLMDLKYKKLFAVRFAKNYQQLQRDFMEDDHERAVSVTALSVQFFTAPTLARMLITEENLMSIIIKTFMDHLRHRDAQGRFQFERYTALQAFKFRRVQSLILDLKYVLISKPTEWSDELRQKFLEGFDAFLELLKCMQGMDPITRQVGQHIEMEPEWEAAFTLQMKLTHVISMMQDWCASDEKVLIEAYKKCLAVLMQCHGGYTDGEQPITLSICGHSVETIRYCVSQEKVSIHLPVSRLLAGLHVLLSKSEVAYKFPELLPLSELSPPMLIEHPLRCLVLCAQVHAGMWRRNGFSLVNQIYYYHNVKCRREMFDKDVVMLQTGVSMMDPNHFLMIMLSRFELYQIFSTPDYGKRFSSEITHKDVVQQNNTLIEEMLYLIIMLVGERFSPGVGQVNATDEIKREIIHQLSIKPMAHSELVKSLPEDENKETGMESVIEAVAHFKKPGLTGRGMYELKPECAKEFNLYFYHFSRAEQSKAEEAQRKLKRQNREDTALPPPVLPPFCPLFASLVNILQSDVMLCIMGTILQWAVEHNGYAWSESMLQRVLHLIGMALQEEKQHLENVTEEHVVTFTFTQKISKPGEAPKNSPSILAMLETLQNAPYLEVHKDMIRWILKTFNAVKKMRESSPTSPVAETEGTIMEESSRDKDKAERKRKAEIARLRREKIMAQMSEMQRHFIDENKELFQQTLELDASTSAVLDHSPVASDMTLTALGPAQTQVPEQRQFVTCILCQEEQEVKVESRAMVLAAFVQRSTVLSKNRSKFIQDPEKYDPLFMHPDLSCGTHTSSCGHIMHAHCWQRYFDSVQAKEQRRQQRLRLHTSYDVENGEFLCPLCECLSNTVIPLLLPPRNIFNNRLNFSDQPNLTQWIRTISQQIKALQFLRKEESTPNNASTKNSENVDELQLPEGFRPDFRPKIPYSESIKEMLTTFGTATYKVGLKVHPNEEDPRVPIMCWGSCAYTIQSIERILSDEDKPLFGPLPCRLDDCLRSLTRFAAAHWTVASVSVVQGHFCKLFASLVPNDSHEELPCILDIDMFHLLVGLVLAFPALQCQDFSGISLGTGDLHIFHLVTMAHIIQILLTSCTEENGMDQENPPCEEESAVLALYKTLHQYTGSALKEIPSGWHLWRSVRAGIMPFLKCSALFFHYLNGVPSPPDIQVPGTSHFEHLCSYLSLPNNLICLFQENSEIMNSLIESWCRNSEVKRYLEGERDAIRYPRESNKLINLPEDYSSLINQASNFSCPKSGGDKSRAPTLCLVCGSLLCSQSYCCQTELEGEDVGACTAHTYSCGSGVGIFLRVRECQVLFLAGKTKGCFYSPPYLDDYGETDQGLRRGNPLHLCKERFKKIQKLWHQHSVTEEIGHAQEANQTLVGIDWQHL

[4] = target: Serine/threonine-protein kinase PLK1 (Homo sapiens, UniProt P53350); assay: Binding affinity to PLK1 PBD (unknown origin) by ITC method
Serine/threonine-protein kinase PLK1, sequence (P53350 whole entry): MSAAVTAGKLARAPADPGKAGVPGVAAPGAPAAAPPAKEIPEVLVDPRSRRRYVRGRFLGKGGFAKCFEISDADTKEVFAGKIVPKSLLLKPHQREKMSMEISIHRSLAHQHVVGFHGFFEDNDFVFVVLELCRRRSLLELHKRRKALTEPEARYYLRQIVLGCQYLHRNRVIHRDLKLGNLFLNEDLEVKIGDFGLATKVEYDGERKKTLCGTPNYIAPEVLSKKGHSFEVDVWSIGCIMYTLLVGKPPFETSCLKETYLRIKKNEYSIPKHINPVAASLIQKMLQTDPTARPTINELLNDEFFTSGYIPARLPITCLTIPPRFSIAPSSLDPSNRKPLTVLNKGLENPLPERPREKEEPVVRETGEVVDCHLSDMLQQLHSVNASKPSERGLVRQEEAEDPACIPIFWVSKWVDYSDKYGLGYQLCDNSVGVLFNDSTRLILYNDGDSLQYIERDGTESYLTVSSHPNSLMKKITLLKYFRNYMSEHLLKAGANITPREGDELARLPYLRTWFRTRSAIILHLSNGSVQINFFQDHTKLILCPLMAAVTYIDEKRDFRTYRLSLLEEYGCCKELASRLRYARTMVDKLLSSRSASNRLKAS

[5] = system: PC-9; assay: Cytotoxicity against human PC-9 cells assessed as change in morphology at 25 uM incubated for 24 hrs by phase contrast microscopic assay; type: functional, cell-based
[6] = system: NCI-H1975; assay: Cytotoxicity against human NCI-H1975 cells assessed as change in morphology at 25 uM incubated for 24 hrs by phase contrast microscopic assay; type: functional, cell-based
[7] = system: PC-9; assay: Induction of cell cycle arrest in human PC-9 cells assessed as G2/M phase arrest at 10 uM incubated for 24 hrs by PI staining based flow cytometry analysis; type: functional
[8] = system: HeLa; assay: Induction of cell cycle arrest in human HeLa cells assessed as delay in S phase progression at 10 uM incubated for 24 hrs by PI staining based flow cytometry analysis; type: functional
[9] = system: NCI-H1975; assay: Induction of cell cycle arrest in human NCI-H1975 cells assessed as delay in S phase progression at 10 uM incubated for 24 hrs by PI staining based flow cytometry analysis; type: functional
[10] = system: PC-9; assay: Induction of cell cycle arrest in human PC-9 cells assessed as delay in S phase progression at 10 uM incubated for 24 hrs by PI staining based flow cytometry analysis; type: functional
[11] = system: NCI-H1975; assay: Induction of cell cycle arrest in human NCI-H1975 cells assessed as fold increase in S phase population at 10 uM incubated for 24 hrs by PI staining based flow cytometry analysis; type: functional
[12] = system: A549; assay: Induction of apoptosis in human A549 cells at 25 uM incubated for 24 hrs by fluorescence microscopic analysis; type: functional, cell-based
[13] = system: HeLa; assay: Antitumor activity against human HeLa cells xenografted in iv dosed nude mouse assessed as reduction in tumor size; type: functional, organism-based; settings: dose 10.0 mg/kg
[14] = system: NCI-H1975; assay: Antitumor activity against human NCI-H1975 cells harboring L858R/T790M double mutant xenografted in iv dosed nude mouse assessed as tumor growth inhibition administered for every 3 days in presence of 5 mg/kg osimertinib; type: functional, organism-based
[15] = system: NCI-H1975; assay: Antitumor activity against human NCI-H1975 cells harboring L858R/T790M double mutant xenografted in nude mouse assessed as fold reduction in tumor size at 10 mg/kg, iv administered for every 3 days in presence of 5 mg/kg osimertinib; type: functional
[16] = In vivo induction of PLK1 degradation in nude mouse xenografted with human NCI-H1975 cells assessed as reduction in PLK1 protein expression at 10 mg/kg, iv administered for every 3 days by Western blotting analysis; type: functional; design: scale not given: the % may be the effect or the level left
[17] = In vivo induction of PLK1 degradation in nude mouse xenografted with human NCI-H1975 cells assessed as reduction in PLK1 protein expression at 10 mg/kg, iv administered for every 3 days in presence of 5 mg/kg osimertinib by Western blotting analysis; type: functional; design: scale not given: the % may be the effect or the level left
[18] = Protac activity at UBR/PLK1 in human A549 cells assessed as PLK1 degradation incubated for 24 hrs by immunoblotting analysis
[19] = system: UBR/PLK1 (Homo sapiens); assay: as above; settings: dose 5-25 µM
[20] = system: UBR/PLK1 (Homo sapiens); assay: Protac activity at UBR/PLK1 in human A549 cells assessed as PLK1 degradation at 30 uM incubated for 24 hrs by immunoblotting analysis
[21] = system: UBR/PLK1 (Homo sapiens); assay: Protac activity at UBR/PLK1 in human A549 cells assessed as PLK1 degradation at 5 to 30 uM preincubated for 24 hrs followed by MG132 addition for 8 hrs by immunoblotting analysis; settings: dose 5-30 µM, time 32.0 hrs
[22] = system: UBR/PLK1 (Homo sapiens); assay: Protac activity at UBR/PLK1 in human PC-9 cells assessed as PLK1 degradation at 5 to 30 uM preincubated for 24 hrs followed by MG132 addition for 8 hrs by immunoblotting analysis; settings: dose 5-30 µM, time 32.0 hrs
[23] = system: UBR/PLK1 (Homo sapiens); assay: Protac activity at UBR/PLK1 in human HeLa cells assessed as PLK1 degradation at 0.3 to 3 uM preincubated for 24 hrs followed by MG132 addition for 8 hrs by immunoblotting analysis; settings: dose 0.3-3 µM
[24] = system: UBR/PLK1 (Homo sapiens); assay: Protac activity at UBR/PLK1 in human NCI-H1975 cells assessed as PLK1 degradation at 5 to 30 uM preincubated for 24 hrs followed by MG132 addition for 8 hrs by immunoblotting analysis; settings: dose 5-30 µM, time 32.0 hrs

Activity [3]: Active
Kd [4]: 3.48 µM
DC50 [18]: 27 µM
Activity [19]: Dose-Dependent Effect
Emax [20]: > 60%
Activity [21]: inactive
Activity [22]: inactive
Activity [23]: inactive
Activity [24]: inactive
Structure (SMILES): C[C@@H](OP(=O)(O)O)[C@@H]1NC(=O)[C@H](Cc2cncn2CCCCCCCCc2ccccc2)NC(=O)[C@@H](NC(=O)CCCCCNC(=O)[C@H](CCCNC(=N)N)NC(=O)[C@H](CCCNC(=N)N)NC(=O)[C@H](CCCNC(=N)N)NC(=O)[C@H](CCCNC(=N)N)NC(=O)[C@H](CCCNC(=N)N)NC(=O)[C@H](CCCNC(=N)N)NC(=O)[C@H](CCCNC(=N)N)NC(=O)[C@H](CCCNC(=N)N)NC(=O)[C@H](CCCNC(=N)N)NC(=O)[C@H](CCCNC(=N)N)NC(=O)[C@H](CCCNC(=N)N)NC(=O)[C@@H](N)CCCNC(=N)N)CCC(=O)NCCCC[C@@H](C(N)=O)NC1=O (H-RRRRRRRRRRRR[Ahx]E[His(π-(CH2)8Ph)][pT]K-NH2; lactam 14-17)
IC50 [1]: 20.6 µM
IC50 [2]: 24.4 µM
Activity [5]: Active
Activity [6]: Active
Activity [7]: 9%
Activity [8]: Active
Activity [9]: Active
Activity [10]: Active
Activity [11]: Active
Activity [12]: Active
Activity [13]: Dose-Dependent Effect
Activity [14]: Dose-Dependent Effect
fold change (FC) [15]: 3.5
Activity [16]: >60%
Activity [17]: 75%

Reference: ChEMBL document CHEMBL5518167, “Degradation of Polo-like Kinase 1 by the Novel Poly-Arginine N-Degron Pathway PROTAC Regulates Tumor Growth in Nonsmall Cell Lung Cancer” (J Med Chem, 2024)
